Measured values taken from patent publication US10507211B2, “Treatment for hereditary neuropathy with liability to pressure palsies (HNPP)” (Vanderbilt University, priority 2016, dated 2019).
Marks after values point to notes of the source that are not given here.

Columns and labels:
[1] = tested on: Pmp22+/− mice; experiment: Percentage of teased nerve fibers with tomacula in treated Pmp22+/− mice; details: 0.25 mg/kg/day I.P.
Excerpt: (§2) Injection started at age of postnatal day 7. […] Using teased nerve fibers, the percentages of nerve fibers with tomacula, a key pathology of HNPP, was quantified, as described [8].
Another 14 Pmp22+/− mice (un-injected) were counted.

[2] = tested on: Pmp22+/− mice; experiment: Evaluation of myelin permeability with 3 kDa Dextran in sciatic nerve fascicles of treated Pmp22+/− mice; details: 3-month-old Pmp22+/− mice; 0.25 mg/kg; versus vehicle; P<0.001
Procedure: With reference to Panel E of FIG. 7, sciatic nerve fascicles from 3-month-old Pmp22+/− mice were incubated with 3 kDa Dextran, as described [3], to evaluate the myelin permeability. Individual teased nerve fibers were imaged. Arrowheads point to the node of Ranvier. […] With reference to Panel F of FIG. 7, fluorescence intensity was quantified by placing a 2.5 μm×2.5 μm interest box 10 μm away from the middle point of the node of Ranvier.
In brief, 1 cm sciatic nerve fascicles were submerged in artificial CSF after epineurium removal and sealed at both ends with Vaseline. A 3 kDa Dextran of fluorescence (2 mg/ml, Cat# D3329, Life technologies) was added for one hour incubation at room temperature without oxygenation. After washing, the nerve fascicles were fixed in 4% PFA for 10 minutes and teased into individual nerve fibers on glass slides for fluorescence microscopy. Fluorescence intensity was quantified by placing a 5 μm×5 μm interest box 10 μm away from the middle point of the node of Ranvier.

[3] = tested on: MEK1; experiment: Western blot of phosphorylated MEK1 (S298) in sciatic nerves of treated Pmp22+/− mice; type: in vivo, mouse; details: 1 week old at start of injection; 0.25 mg/kg/day I.P.; 11 weeks; n = 8
Excerpt: Residues in other PAKs could be phosphorylated but cannot be substantiated due to the lack of specific antibodies.
Samples were homogenized for protein isolation.

[4] = reference [23]; cited from earlier work
[5] = tested on: PAK1; experiment: F-actin and phosphorylated PAK1 in Pak1+/+ and Pak1−/− primary Schwann cell culture; type: cell-based; details: Pak1−/− Schwann cells; 9 μM for 12 hour
Excerpt: (§1) FIG. 8. […] The total actin and GAPDH were used as loading controls.

[6] = tested on: claudin-19; experiment: Abnormal claudin-19 staining of paranodes and incisures (tight junctions) in treated Pmp22+/− mice; details: 0.25 mg/kg/day I.P., n = 8
Excerpt: Paraffin sections of mouse sciatic nerves were stained with antibodies. Percentages of abnormal paranodes or incisures were manually counted [3]. An abnormal paranode or incisurae was defined as the staining was absent in more than a half of normally stained paranodal or incisure territory. […] White dots outline the margin of the nerve fiber, based on its phase-contrast image. […] As shown in Panel E of FIG. 2, teased sciatic nerve fibers of Pmp22+/+ mice at the 3 months of age were stained with antibodies against claudin-19 to show paranodes (quadrant E1) and incisures (arrowhead in quadrant E3).
(§3) Thus, Pmp22+/− mice were treated with 0.25, 0.5, 1.0 mg/kg PF3758309 or vehicle—saline (FIG. 7 and Table 1). […] Injection started at age of postnatal day 7.
In brief, sciatic nerves were fixed, embedded in paraffin, and cut into 5 μm-thick slices. Sections were incubated overnight with primary antibodies at 4° C. After washing, sections were stained for 1 hour with secondary antibodies. The stained slides were examined under a Leica fluorescent microscope (Leica DM6000B). For teased nerve stains, sciatic nerves were fixed in 4% paraformaldehyde (PFA) overnight and teased into individual fibers on glass slides. The slides were dried overnight, reacted with primary antibodies, and followed by secondary antibodies.

[7] = biological target: T1, PAK1 (Mus musculus, UniProt O88643); experiment: F-actin and phosphorylated PAK1 in Pak1+/+ and Pak1−/− primary Schwann cell culture; type: cell-based; set-up: Pak1+/+ and Pak1−/− primary Schwann cell culture; endogenous in cells; host or cells: primary Schwann cells, Pak1+/+ and Pak1-/-; details: Pak1+/+ Schwann cells; 9 μM for 12 hour
Excerpt: as §1
Target sequence in this assay (O88643 2-545): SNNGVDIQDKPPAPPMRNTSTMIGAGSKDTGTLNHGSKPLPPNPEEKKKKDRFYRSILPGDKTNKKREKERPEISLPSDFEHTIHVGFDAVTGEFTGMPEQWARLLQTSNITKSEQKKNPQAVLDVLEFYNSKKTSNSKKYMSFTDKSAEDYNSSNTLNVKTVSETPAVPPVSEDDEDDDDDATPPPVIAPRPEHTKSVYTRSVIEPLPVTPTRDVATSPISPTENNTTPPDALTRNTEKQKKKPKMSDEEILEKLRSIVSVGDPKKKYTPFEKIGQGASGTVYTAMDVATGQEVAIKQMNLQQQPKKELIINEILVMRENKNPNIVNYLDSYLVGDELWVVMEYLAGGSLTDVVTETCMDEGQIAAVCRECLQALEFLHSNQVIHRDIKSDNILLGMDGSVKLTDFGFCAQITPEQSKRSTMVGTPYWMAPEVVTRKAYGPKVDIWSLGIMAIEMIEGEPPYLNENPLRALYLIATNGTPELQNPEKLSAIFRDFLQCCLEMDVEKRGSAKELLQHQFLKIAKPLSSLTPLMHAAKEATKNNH

[8] = biological target: T2, PAK2 (Mus musculus, UniProt Q8CIN4); experiment: Phosphorylated PAK2 (S20) in primary Schwann cell culture; type: cell-based; details: Schwann cells; 9 μM for 12 hour
T2 construct: Pak1+/+ and Pak1−/− primary Schwann cell culture; endogenous in cells; host or cells: primary Schwann cells, Pak1+/+ and Pak1-/-
Excerpt: as §1

[9] = tested on: Pmp22+/− mice; experiment: Nerve conduction study (NCS) on sciatic nerves of treated Pmp22+/− mice; details: for CV(m/s): 0.25 mg/kg/day I.P., n = 8
Procedure: as §3
In FIG. 7, Panel B, CMAP amplitudes were measured prior to the treatment.
NCS was previously described [8]. […] A skilled technician gets NCS done in each mouse within 6 minutes. […] CMAP was recorded from the intrinsic foot muscle using needle electrodes. Stimulation electrodes were positioned percutaneously at the sciatic notch and adjacent to the tibial nerve at the ankle. CMAP amplitudes were measured from baseline to the peak of negative deflection.

[10] = tested on: Pmp22+/− mice; experiment: Mouse tolerance to PF3758309 (i.p. daily); type: in vivo
Excerpt: Pmp22+/− mice were backcrossed with C57Bl6J mice (Jackson Lab) for more than 10 generations to reach congenic. Mice were genotyped as described. The congenic Pmp22+/− mice have been extensively characterized.
For PAK1 inhibitor (PF3758309) injections, Pmp22+/− mice were randomized into vehicle and treated groups. Based on the power calculation of variations derived from mouse compound nerve action potentials, 7 mice for each group would have a 92% chance to detect a significant difference. PF-3758309 (Cat# CT-PF0375, ChemieTek) was dissolved in normal saline for intraperitoneal injection (i.p.) daily.

[11] = tested on: F-actin; experiment: F-actin staining of teased nerve fibers with fluorescent phalloidin in treated Pmp22+/− mice; type: in vivo, mouse; details: versus vehicle
Procedure: This method was modified from the published study. In brief, sciatic nerves were fixed, embedded in paraffin, and cut into 5 μm-thick slices. Sections were incubated overnight with primary antibodies at 4° C. After washing, sections were stained for 1 hour with secondary antibodies. The stained slides were examined under a Leica fluorescent microscope (Leica DM6000B). For teased nerve stains, sciatic nerves were fixed in 4% paraformaldehyde (PFA) overnight and teased into individual fibers on glass slides. […] For newly formed F-actin staining, as described, the existing F-actin in sciatic nerve explants was saturated with a cell-permeable actin-binding compound, jasplakinolide (Cat#420127, Millipore), at 1 μM in culture media. After washing with PBS, the explants were incubated in a drug-free media for 6 hours at 37° C. The explants were fixed in 4% PFA and teased for F-actin staining using fluorescent phalloidin (1:400, Cat# R415, Life Technologies).

[12] = biological target: T1, PAK1; experiment: Western blot of phosphorylated PAK1 (T212) in sciatic nerves of treated Pmp22+/− mice; details: 0.25 mg/kg/day I.P., n = 8
Target sequence in this assay (O88643 whole entry): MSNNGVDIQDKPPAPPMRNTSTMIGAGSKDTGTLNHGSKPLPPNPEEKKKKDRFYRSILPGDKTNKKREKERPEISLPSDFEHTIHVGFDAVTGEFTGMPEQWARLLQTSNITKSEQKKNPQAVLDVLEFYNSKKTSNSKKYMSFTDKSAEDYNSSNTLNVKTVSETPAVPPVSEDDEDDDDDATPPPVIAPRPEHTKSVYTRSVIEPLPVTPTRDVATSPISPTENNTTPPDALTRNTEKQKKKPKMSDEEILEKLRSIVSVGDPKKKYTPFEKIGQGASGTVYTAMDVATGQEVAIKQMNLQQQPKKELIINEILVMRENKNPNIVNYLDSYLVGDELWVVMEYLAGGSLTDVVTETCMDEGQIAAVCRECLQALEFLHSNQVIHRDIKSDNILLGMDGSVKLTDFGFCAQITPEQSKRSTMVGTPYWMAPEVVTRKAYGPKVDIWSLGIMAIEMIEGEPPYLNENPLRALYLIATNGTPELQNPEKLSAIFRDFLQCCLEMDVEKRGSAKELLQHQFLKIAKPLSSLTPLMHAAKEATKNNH
Procedure: The specificity of total PAK1, S144, and T212 antibodies was verified using Pak1+/+ and Pak1−/− nerves.
as §2
Samples were homogenized for protein isolation. […] Samples were loaded into SDS-PAGE gels and transferred to a PVDF membrane. The membranes were blotted with 5% non-fat milk and incubated overnight at 4° C. with primary antibodies, and followed by secondary antibodies. The immune complexes were detected by the enhanced chemoilluminescence (Cat# NEL103001, Perkin Elmer). In some cases, the blots were stripped and re-probed with additional antibodies. Quantification of band intensity was performed by the ImageJ software (rsbweb.nih.gov/ij/).

[13] = 1 week old at start of injection, 11 weeks
[14] = 6-11 month age at start of injection, 4 weeks

T2 sequence (Q8CIN4 whole entry): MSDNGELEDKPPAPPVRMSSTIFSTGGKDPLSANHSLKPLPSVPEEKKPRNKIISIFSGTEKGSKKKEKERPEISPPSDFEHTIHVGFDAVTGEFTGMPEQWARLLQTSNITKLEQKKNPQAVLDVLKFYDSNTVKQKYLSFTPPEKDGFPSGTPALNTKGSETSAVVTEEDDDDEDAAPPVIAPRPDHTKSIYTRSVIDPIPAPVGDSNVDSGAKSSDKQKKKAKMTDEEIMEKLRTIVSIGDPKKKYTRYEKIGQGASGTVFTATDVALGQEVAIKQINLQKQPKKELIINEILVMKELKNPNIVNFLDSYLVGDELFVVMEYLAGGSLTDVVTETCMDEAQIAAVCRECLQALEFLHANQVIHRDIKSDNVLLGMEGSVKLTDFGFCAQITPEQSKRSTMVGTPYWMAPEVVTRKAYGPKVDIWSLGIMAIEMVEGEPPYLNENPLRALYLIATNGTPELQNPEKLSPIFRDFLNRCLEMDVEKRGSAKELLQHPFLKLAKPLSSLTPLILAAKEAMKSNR

Cc1nc(Nc2n[nH]c3c2CN(C(=O)N[C@H](CN(C)C)c2ccccc2)C3(C)C)c2sccc2n1 [PF-3758309]
% Tomacula ([1]; 1 week old at start of injection, 11 weeks, n = 8): 27.3 ± 4.5% | % Tomacula +outlier ([1]; 6-11 month age at start of injection, 4 weeks, outlier included): 25.2 ± 7.5% | % Tomacula −outlier ([1]; 6-11 month age at start of injection, 4 weeks, outlier taken off): 22.8 ± 4.3 ^d % | 3 kDa Dextran fluorescence intensity (myelin permeability) [2]: significantly decreased | Ratio (S298/MEK1) [3]: 0.39 ± 0.2 | penetration into the nervous system [4]: penetrated into the nervous system | F-actin level [5]: failed to change | % abnormal Claudin-19 (incisures) ([6]; incisures, 1 week old at start of injection, 11 weeks): 27.7 ± 4.6 ^b % | % abnormal Claudin-19 (paranodes) [6, 13]: 36.5 ± 18.4 ^a % | % abnormal Claudin-19 (paranodes) [6, 14]: 43.5 ± 13.3 ^a % | F-actin level [7]: hardly detectable | level of phosphorylated PAK1 (S144) [7]: suppressed | level of phosphorylated PAK1 (T212) [7]: suppressed | level of phosphorylated PAK2 (S20) [8]: inhibited | total PAK2 levels [8]: not altered | CMAP amplitude ([9]; 1.00 mg/kg i.p. daily for 11 weeks from postnatal day 7, eight 3-month-old Pmp22+/− mice (Pmp22+/+ 3.2±0.6 mV)): 1.5±0.8 mV | decline of CMAP amplitudes ([9]; 0.25, 0.5, 1.0 mg/kg i.p. daily for 11 weeks from postnatal day 7, versus vehicle): prevented the decline of CMAP amplitudes with all three dosages | CV(m/s) [9, 13]: 17.8 ± 3.0 m/s | CV(m/s) [9, 14]: 19.7 ± 11.1 m/s | decrease of CMAP amplitudes over the course of treatment ([9]; mice enrolled at 6-11 months, 0.25 mg/kg, vehicle fell from 1.6±0.7 mV to 0.7±0.2 mV): completely prevented | mortality and side-effect ([10]; 0.25 mg/kg, treated for 11 weeks): no increase of mouse mortality and observable side-effect | mice killed ([10]; 2.5 mg/kg or 25 mg/kg i.p. daily, 20 Pmp22+/− mice, within 15 days): over 50% | body weight ([10]; 2.5 mg/kg or 25 mg/kg i.p. daily, within 15 days): drastic reduction of body weight | tolerance (body weight, death) ([10]; 0.25, 0.5, 1.0 mg/kg i.p. daily, 11 weeks): tolerated these doses well with no change of body weight or increase of death | levels of F-actin ([11]; 0.25 mg/kg i.p. daily for 11 weeks, 3-month-old Pmp22+/− mice): suppressed | F-actin levels ([11]; mice enrolled at 6-11 months, 0.25 mg/kg): significantly lower | Ratio (T212/PAK1) [12, 13]: 0.61 ± 0.0 | Ratio (T212/PAK1) [12, 14]: 0.26 ± 0.1
